Structures can show the parent of a compound that is named as a salt. Activity calls are given as the source filed them.
Assays:
[1] = target: Solute carrier family 12 member 2/member 5 (Homo sapiens, UniProt P55011+Q9H2X9); assay: KCC2 and NKCC1 inhibition by rubidium flux, cell-based, NKCC1 counter-screen (AID 1734); assay type: functional, HEK293
[2] = target: T1, Heat shock factor protein 1 (Mus musculus, UniProt P38532); assay: inhibition of MG132-induced HSE-luciferase signal, confirmation, cell-based, NIH3T3, luminescence, dose retest (AID 2382); assay type: functional;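 note: NIH3T3 fibroblasts with HSF1-driven luciferase reporter stressed by proteasome inhibitor MG132; luminescence from HSF1-driven luciferase expression after 8 hours of MG132 stress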
T1 sequence (P38532 whole entry): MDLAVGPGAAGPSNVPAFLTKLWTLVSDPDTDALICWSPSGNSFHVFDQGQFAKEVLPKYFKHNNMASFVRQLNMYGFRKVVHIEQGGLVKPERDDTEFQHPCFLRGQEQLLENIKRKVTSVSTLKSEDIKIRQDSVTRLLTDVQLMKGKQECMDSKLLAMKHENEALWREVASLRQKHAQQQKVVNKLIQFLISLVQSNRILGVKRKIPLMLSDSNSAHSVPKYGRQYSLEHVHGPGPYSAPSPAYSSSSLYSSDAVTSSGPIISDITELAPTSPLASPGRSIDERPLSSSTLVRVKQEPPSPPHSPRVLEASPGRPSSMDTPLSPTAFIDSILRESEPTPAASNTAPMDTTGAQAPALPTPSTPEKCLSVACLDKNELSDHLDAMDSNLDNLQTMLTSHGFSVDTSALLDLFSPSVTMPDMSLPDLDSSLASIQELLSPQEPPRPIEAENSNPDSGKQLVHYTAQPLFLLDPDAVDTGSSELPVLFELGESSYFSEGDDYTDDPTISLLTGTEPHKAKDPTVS

Bcl-2-related protein A1 [3] = target: T2, Bcl-2-related protein A1 (Mus musculus, UniProt Q07440); assay: Bfl-1 inhibitors blocking BH3 peptide binding, confirmation, biochemical, TR-FRET, mouse Bfl-1 (AID 621);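 note: TR-FRET binding of GST-Bfl-1 to FITC-labelled Bid peptide via terbium antibody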
T2 sequence (Q07440 whole entry): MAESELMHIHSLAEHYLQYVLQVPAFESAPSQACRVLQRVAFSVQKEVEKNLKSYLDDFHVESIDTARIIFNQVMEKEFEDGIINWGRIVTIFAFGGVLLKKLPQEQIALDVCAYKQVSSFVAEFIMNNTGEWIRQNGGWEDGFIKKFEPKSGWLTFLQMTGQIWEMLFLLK

Bcl-2-related protein A1 [4] = target: T2, Bcl-2-related protein A1; assay: Bfl-1 inhibitors, primary screen, biochemical, fluorescence polarization, FITC-Bid, mouse (AID 432)
[5] = target: T3, Sentrin-specific protease 1 (Homo sapiens, UniProt Q9P0U3); assay: Dose response confirmation of small molecule inhibitors of the catalytic domain of the SUMO protease, SENP1 in a FRET assay.; assay type: functional; settings: read-out: IC50_Mean
T3 sequence (Q9P0U3 whole entry): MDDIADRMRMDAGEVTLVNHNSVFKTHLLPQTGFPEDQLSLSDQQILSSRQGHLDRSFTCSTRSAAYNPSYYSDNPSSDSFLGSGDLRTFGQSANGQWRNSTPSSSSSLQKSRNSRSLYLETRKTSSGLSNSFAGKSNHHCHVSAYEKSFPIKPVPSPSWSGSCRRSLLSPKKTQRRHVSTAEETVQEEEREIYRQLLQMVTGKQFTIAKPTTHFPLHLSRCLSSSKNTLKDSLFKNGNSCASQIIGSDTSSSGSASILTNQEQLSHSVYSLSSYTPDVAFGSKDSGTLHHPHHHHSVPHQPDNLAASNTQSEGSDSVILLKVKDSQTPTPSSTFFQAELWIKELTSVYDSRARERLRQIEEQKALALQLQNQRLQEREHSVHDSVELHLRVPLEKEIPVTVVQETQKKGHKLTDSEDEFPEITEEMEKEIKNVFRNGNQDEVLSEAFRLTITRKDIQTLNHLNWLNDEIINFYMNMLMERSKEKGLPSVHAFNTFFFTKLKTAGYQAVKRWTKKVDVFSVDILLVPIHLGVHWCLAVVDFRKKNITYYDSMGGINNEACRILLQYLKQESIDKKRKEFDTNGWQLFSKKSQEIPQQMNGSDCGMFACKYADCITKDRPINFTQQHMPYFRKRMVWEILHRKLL

[6] = target: T3, Sentrin-specific protease 1; assay: potency of human SENP1 inhibitors, dose response, biochemical, kinetic FRET (AID 651697); assay type: functional; settings: read-out: IC50_Mean
[7] = target: T4, Endoribonuclease toxin MazF (Escherichia coli K-12, UniProt P0AE70); assay: fluorescent RNA oligo signal without MazF, dose response, counter-screen for MazEF activator project, biochemical, fluorescence, single-stranded RNase substrate (AID 588502); assay type: functional
T4 sequence (P0AE70 whole entry): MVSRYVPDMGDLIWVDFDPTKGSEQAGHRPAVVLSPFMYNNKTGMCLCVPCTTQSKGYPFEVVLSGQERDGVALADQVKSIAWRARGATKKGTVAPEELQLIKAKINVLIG

[8] = target: UDP-galactopyranose mutase (Mycobacterium tuberculosis, UniProt P9WIQ1); assay: Inhibitors of Mycobacterium tuberculosis UDP-galactopyranose mutase (UGM) enzyme Measured in Biochemical System Using Plate Reader - 2105-02_Inhibitor_Dose_CherryPick_Activity. [Related pubchem assays (depositor defined):AID504439]
UDP-galactopyranose mutase, sequence (P9WIQ1 whole entry): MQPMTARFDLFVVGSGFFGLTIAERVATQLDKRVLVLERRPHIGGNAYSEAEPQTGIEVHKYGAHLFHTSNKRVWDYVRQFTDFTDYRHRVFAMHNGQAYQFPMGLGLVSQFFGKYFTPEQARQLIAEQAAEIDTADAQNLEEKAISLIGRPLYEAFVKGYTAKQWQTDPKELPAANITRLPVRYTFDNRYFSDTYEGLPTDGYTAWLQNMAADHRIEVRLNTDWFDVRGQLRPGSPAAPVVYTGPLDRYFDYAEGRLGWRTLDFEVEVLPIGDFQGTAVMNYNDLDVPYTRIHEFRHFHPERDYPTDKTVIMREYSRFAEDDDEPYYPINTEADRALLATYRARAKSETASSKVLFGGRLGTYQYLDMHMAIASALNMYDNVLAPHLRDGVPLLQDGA

Troponin, cardiac muscle = Troponin, cardiac muscle (Homo sapiens, UniProt P19429+P45379+P63316); assay: Fluorescence-based biochemical high throughput dose response assay for activators of the calcium sensitivity of cardiac Regulated Thin Filaments (RTF). [Related pubchem assays (depositor defined):AID493008, AID493018, AID504382, AID504383]; assay type: protein-complex assay
[9] = target: T4, Endoribonuclease toxin MazF; assay: MazF toxin RNase activators, dose response, biochemical, fluorescence, single-stranded RNA substrate, uHTS hits (AID 588481); assay type: functional
[10] = target: T5, Corticotropin-releasing factor receptor 2/Corticotropin-releasing factor-binding protein (Homo sapiens, UniProt P24387+Q13324); assay: activators of CRF receptor 2 with binding protein – uHTS hits, confirmation (AID 602473); assay type: functional; settings: read-out: EC50_Mean
T5 sequence (Q13324 whole entry): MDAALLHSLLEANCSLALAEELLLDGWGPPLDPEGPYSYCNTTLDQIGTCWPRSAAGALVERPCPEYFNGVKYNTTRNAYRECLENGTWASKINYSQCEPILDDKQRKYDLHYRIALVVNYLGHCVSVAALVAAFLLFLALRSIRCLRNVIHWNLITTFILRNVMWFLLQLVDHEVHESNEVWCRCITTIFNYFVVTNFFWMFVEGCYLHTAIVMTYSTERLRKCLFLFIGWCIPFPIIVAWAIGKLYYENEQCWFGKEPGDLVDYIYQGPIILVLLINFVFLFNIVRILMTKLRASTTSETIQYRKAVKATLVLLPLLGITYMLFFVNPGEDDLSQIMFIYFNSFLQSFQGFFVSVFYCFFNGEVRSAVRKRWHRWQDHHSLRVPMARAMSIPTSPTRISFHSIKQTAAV
T5 sequence (P24387 whole entry): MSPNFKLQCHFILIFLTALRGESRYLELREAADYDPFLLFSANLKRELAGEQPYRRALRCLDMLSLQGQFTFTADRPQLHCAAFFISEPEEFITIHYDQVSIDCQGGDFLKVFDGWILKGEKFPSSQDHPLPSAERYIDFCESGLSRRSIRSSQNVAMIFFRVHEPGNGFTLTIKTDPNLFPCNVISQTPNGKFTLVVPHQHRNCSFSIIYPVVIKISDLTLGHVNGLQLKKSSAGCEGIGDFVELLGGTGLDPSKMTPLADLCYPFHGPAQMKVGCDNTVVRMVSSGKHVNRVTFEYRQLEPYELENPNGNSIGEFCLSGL

Heat shock protein HSP90 = Heat shock protein HSP90 (Homo sapiens, UniProt P07900+P08238); assay: tumor Hsp90 inhibitor potency, dose response (AID 712); assay type: functional
[11] = target: T6, RNA-binding protein pos-1 (Caenorhabditis elegans, UniProt G5EF15); assay: inhibitors of POS-1/mex-3 RNA binding, dose response, biochemical, fluorescence polarization (AID 1964);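 note: purified POS-1 fused to maltose binding protein made in E. coli; potency of compounds blocking POS-1 binding to fluorescent RNA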
T6 sequence (G5EF15 whole entry): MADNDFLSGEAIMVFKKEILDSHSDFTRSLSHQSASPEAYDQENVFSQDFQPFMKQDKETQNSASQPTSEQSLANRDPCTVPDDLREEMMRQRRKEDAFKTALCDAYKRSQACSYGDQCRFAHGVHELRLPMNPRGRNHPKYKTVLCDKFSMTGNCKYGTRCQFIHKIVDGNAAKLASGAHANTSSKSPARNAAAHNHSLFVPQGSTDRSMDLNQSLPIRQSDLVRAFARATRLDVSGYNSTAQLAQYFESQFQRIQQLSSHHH

14-3-3 protein gamma = target: T7, 14-3-3 protein gamma (Homo sapiens, UniProt P61981); assay: modulators of 14-3-3 gamma client binding – dose response (AID 711); assay type: functional
T7 sequence (P61981 whole entry): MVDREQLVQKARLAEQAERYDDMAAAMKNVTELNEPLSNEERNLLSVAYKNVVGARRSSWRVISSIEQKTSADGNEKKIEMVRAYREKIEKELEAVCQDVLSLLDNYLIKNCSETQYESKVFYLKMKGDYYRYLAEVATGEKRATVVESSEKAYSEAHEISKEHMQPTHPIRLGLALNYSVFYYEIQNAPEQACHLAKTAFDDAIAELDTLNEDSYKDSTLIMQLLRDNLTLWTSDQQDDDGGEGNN

HEK293 = assay: Fluorescence-based counterscreen for potentiators or agonists of NPY-Y2: cell-based high-throughput dose response assay to identify inhibitors of cyclic nucleotide gated ion channel (CNGC) activity. In this assay, the parental HEK293 cell line transfected with a cyclic-nucleotide gated ion channel (CNGC)-based cAMP sensor is used to measure inhibition of isoproterenol-induced CNGC activity by test compound.; assay type: functional; settings: Homo sapiens;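 note: stimulus is 1 µM isoproterenol at EC100 plus PDE inhibitor Ro 20-1724 at 25 µM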

SMILES: Cc1csc(NC(=O)CSc2ccc(-c3ccccc3)nn2)n1
- IC50 [1]: 0.56 µM (active)
- EC50 [2]: > 195 µM (not active)

SMILES: Nc1ccc(C2CCCc3nonc32)c2nonc12 (stereo not given)
- IC50 (Bcl-2-related protein A1 [3]): > 100 µM (not active)
- IC50 (Bcl-2-related protein A1 [4]): > 100 µM (not active)
- IC50 [5]: 39.4 µM (inactive)
- IC50 [6]: 42 µM (inactive)

SMILES: CN(C)c1ccc(/N=C/c2nc(-c3ccccc3)oc2O)cc1
- EC50 [7]: 56.6 µM (inactive)
- AC50 [8]: 68.2 µM (active)
- EC50 (Troponin, cardiac muscle): 3.71 µM (active)
- EC50 [9]: 46.7 µM (inactive)
- EC50 [10]: 7.96 µM (active)
- IC50 (Heat shock protein HSP90): 27.302 µM
- EC50 [11]: 5.7 µM (active)
- IC50 (14-3-3 protein gamma): 9.68 µM (active)

SMILES: COCCc1ccc(OCC(O)CNC(C)C)cc1 (stereo not given) [METOPROLOL TARTRATE]
- EC50 (HEK293): 2.99 µM (active)

Source: ChEMBL document CHEMBL1201862, “PubChem BioAssay data set” (2004)
